These results are taken from publication PMC4043309 (Journal of medicinal chemistry, 2013).

SMILES strings stand for the structures.

One data set is described as follows: Stabilities. It counts as physicochemical. As to conditions: for stability: isomerization on storage: methanol or methanol–chloroform mixture (v/v 1:1) as solvent.
Data set [1] concerns the target T1, recombinant human estrogen receptor-α (ER-α) (Homo sapiens, UniProt P03372).
T1 sequence (P03372 1-595): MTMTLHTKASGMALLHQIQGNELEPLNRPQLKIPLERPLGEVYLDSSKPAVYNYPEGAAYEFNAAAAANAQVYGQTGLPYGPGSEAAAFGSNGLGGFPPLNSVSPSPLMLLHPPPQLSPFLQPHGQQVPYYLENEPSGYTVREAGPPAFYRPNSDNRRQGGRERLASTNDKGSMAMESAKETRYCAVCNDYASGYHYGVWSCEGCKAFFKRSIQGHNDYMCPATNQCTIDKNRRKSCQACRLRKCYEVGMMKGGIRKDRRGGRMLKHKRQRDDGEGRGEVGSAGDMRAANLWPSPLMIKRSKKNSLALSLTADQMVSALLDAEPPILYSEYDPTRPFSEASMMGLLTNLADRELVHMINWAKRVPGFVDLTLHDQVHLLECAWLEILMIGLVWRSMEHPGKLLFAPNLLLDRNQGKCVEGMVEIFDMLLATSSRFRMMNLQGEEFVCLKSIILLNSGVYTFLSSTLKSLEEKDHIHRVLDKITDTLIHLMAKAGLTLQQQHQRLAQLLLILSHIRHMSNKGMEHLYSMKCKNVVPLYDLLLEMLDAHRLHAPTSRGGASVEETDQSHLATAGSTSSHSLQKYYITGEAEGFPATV
It counts as binding. The following applies: at 100 μM compound.

For data set [2], the target named is T2, recombinant human aromatase (CYP19) (Homo sapiens, UniProt P11511).
T2 sequence (P11511 1-503): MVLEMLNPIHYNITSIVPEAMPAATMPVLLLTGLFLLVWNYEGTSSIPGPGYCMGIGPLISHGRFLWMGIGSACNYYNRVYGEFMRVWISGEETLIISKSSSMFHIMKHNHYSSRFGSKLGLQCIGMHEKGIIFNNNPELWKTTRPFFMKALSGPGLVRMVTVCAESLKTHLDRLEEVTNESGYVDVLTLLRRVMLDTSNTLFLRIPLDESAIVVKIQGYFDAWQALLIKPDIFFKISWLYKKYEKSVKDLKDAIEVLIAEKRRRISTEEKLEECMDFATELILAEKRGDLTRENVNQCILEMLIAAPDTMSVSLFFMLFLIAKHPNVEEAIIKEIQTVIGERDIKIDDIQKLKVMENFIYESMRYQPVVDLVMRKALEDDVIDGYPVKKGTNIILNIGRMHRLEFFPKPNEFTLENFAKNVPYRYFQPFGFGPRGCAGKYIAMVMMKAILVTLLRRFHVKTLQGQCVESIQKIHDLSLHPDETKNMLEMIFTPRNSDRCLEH
Nature of the data set: Inhibition of recombinant human aromatase.

Data set [3] has as its target recombinant human estrogen receptor-β (ER-β) (Homo sapiens, UniProt Q92731). The format is binding. As to conditions: at 100 μM compound.

Sequence of recombinant human estrogen receptor-β (ER-β) (Q92731 whole entry): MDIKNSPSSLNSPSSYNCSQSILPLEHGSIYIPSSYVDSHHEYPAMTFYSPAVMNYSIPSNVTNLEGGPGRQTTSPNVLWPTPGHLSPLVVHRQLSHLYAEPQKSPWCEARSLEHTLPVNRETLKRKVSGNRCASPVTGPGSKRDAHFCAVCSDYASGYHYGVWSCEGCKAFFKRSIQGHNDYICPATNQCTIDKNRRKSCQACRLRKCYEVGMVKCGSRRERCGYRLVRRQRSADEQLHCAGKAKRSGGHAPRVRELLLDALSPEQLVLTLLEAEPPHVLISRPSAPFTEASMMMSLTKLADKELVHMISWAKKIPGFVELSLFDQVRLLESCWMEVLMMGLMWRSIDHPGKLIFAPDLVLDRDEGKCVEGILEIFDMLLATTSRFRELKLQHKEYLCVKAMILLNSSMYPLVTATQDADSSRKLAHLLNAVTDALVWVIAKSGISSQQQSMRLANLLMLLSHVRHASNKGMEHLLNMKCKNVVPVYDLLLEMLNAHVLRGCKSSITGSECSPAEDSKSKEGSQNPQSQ

On to `CC/C(=C(/c1ccc(O)cc1)c1ccc(OCCN)cc1)c1ccccc1` [E-4, (E)-4-(1-(4-(2-Aminoethoxy)phenyl)-2-phenylbut-1-enyl)phenol], for which the “stability: isomerization on storage” value in the data set “Stabilities” was “stored for at least a few weeks without substantial isomerization”. For the compound `CC/C(=C(\c1ccc(O)cc1)c1ccc(OCCN)cc1)c1ccccc1` [Z-4, (Z)-4-(1-(4-(2-Aminoethoxy)phenyl)-2-phenylbut-1-enyl)phenol], the “stability: isomerization to mixed (E,Z)-norendoxifen” value in “Stabilities” (chloroform (or dichloromethane) as the single solvent) was “fast isomerization”. Also, in the data set “Stabilities”, the “stability: isomerization on storage” value is “stored for at least a few weeks without substantial isomerization”. For `CCC(=C(c1ccc(O)cc1)c1ccc(O)cc1)c1ccccc1` [compound 2, 4,4′-(2-Phenylbut-1-ene-1,1-diyl)diphenol], in data set [1], the ER-α percent competition is 80% competition.

For the compound `CC/C(=C(\c1ccc(O)cc1)c1ccc(OCC(N)=O)cc1)c1ccccc1` [compound 3, (E,Z)-2-(4-(1-(4-Hydroxyphenyl)-2-phenylbut-1-enyl)phenoxy)-acetamide], the “fold less potent against aromatase than mixed (E,Z)-norendoxifen” value in data set [2] is 90 fold. In addition, the ER-β percent competition in data set [3] came to 71% competition. Further, the ER-α percent competition in data set [1] came out at 57% competition. In the case of `CC/C(=C(/c1ccc(O)cc1)c1ccc(OC(=O)C(C)(C)C)cc1)c1ccccc1` [compound 6, (E)-4-(1-(4-Hydroxyphenyl)-2-phenylbut-1-enyl)phenyl Pivalate], the ER-β percent competition in data set [3] stood at 68% competition. In data set [1], the ER-α percent competition turned out to be 68% competition.

Consider `CC/C(=C(/c1ccc(OCC(N)=O)cc1)c1ccc(OC(=O)C(C)(C)C)cc1)c1ccccc1` [compound 7, (E)-4-(1-(4-(2-Amino-2-oxoethoxy)phenyl)-2-phenylbut-1-enyl)-phenyl Pivalate], for which the ER-β percent competition in data set [3] is 45% competition. Also, the ER-α percent competition in data set [1] is 56% competition.
